In patent publication US8143251B2, “Triazolotriazines as kinase inhibitors” (Incyte Corporation, priority 2006, dated 2012):

Target: T1, c-Met kinase (histidine-tagged c-Met catalytic domain fusion protein) (Homo sapiens, UniProt P08581)
T1 construct: histidine-tagged c-Met catalytic domain fusion protein (Invitrogen, #PV3143) was used for the assay; histidine tag; purchased Invitrogen PV3143
Assay: In vitro c-Met kinase enzyme assay
Assay type: biochemical
Settings: poly Glu-Tyr phosphorylation, 5 μM ATP, 25 minutes at 30° C.; read-out: IC50 for the inhibition of c-Met kinase
Method: Compounds were screened in vitro for their ability to inhibit c-Met kinase activity. The IC50 values of compounds for the inhibition of c-Met kinase were determined as described in the literature with some modifications (Wang, X. et al, Mol. Cancer. Ther. 2003, 2(11):1085-1092; Calic, M. et al., Croatica Chemical ACTA. 2005, 78(3):367-374). Briefly, histidine-tagged c-Met catalytic domain fusion protein (Invitrogen, #PV3143) was used for the assay. IC50 measurements were based on the degree of phosphorylation of poly Glu-Tyr (Sigma-Aldrich, #PO275) that was coated (0.01 mg/per well) on 96-well microplates (R&D systems, #DY990). The reaction was carried out in a 50 μL solution containing 50 mM HEPES (pH 7.5), 10 mM MnCl2, 10 mM MgCl2, 0.5 mM DTT, 100 μM Na3VO4, 5 μM ATP (Cell Signaling Technology, #9804) and serial dilutions of individual compounds. The reaction lasted for 25 minutes at 30° C. After the reaction was completed, the contents of the plates was discarded. […] The optical density was measured immediately using a microplate reader at 450 nm with wavelength correction at 540 nm. IC50 values were calculated with the GraphPad Prism software. The linear range (i.e., the time period over which the rate remained equivalent to the initial rate) was determined for the kinase and IC50 determinations were performed within this range. […]

T1 sequence (P08581 1078-1345 limits assumed): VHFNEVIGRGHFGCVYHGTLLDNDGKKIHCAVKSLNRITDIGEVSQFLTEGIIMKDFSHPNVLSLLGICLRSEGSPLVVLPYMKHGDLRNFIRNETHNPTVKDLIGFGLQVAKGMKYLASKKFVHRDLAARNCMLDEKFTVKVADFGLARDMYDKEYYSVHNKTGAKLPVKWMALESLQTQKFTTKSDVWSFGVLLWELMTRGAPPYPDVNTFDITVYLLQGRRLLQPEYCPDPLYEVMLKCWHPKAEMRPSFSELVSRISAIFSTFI

In the case of `COc1ccc(C2(c3nnc4ncc(-c5ccccc5)nn34)CC2)cc1` [Example 26, 3-[1-(4-Methoxyphenyl)cyclopropyl]-6-phenyl[1,2,4]triazolo[4,3-b][1,2,4]triazine], the IC50 is reported as 12.9 nM.
